We go through 32 compounds from patent US7517996B2, “Azole compound” (Ajinomoto Co., Inc., priority 2003, dated 2009).

A short description of this experiment: Inhibition of LPA-induced intracellular Ca2+ concentration increase (FLIPR). It is filed as cell-based. The conditions noted are these: LPA final concentration 5 μM; rat hepatic stellate cell derived myofibroblast like clone; Fluo-3, FLIPR. The text has this: (1) Establishment of Myofibroblast Like Cell Strain Derived from Rat Hepatic Stellate Cell Fraction A stellate cell fraction was obtained from the liver of male Wistar rat according to a conventional method (European J. Biochem., 1993, vol. 213, p. 815). After subculture for several generations, the cell was cloned by limiting dilution. Well grown 24 clones that formed colonies were isolated. These clones were stained with αSMA antibody and confirmed to be all positive and to have Myofibroblast like properties. […] (2) Measurement of Cell Activation (Intracellular Ca^2+ Concentration Increasing Action)-Inhibitory Activity The above-mentioned cells were cultured overnight in a 384 well plate at 24,000 cells/well and the medium was removed. An assay buffer (0.1% BSA, 20 mM HEPES, 1×HBSS, 2.5 mM Probenecid) containing 4 μM of Fluo-3, AM (Biotium) was added, and the cells were stained at 37° C. for 1 hour. Following the buffer containing the dye reagent was removed, and an assay buffer was added, intracellular Ca^2+ concentration was measured with FLIPR (Molecular Devices). Adding a test substance and LPA at the final concentration of 5 μM, the inhibitory action of the test substance on the increase in the intracellular Ca^2+ concentration by LPA was examined. The increase in the intracellular Ca^2+ concentration by LPA addition without test substance was taken as 100%, that without the addition of LPA was taken as 0%, and the substrate's concentration (IC50) at inhibiting increase in the intracellular Ca^2+ concentration by 50% was determined.

Each structure is given as a SMILES string.

As a reminder, the IC50 is the concentration at which inhibition is half-maximal. The compound `CC(=O)N[C@@H](CSCc1ccc(-c2nocc2NC(=O)OC(C)c2ccccc2Cl)cc1)C(=O)O` (stereo partly drawn) [Compound 4, N-acetyl-S-(4-{4-[1-(2-chlorophenyl)ethoxycarbonylamino]-3-isoxazolyl}benzyl)-L-cysteine] returned an IC50 of 0.065 µM. For the compound `CC(OC(=O)Nc1conc1-c1ccc(CCC(C)(C)CC(=O)O)cc1)c1ccccc1Cl` (centres unmarked) [Compound 33, 5-(4-{4-[1-(2-chlorophenyl)ethoxycarbonylamino]-3-isoxazolyl}phenyl)-3,3-dimethylpentanoic acid], the IC50 worked out at 0.119 µM.

Compound `CC(OC(=O)Nc1conc1-c1ccc(CCSCC(=O)O)cc1)C1=C(Cl)CCCC1` (centres unmarked) [Compound 17, {[2-(4-{4-[1-(2-chlorocyclohexenyl)ethoxycarbonylamino]-3-isoxazolyl}phenyl)ethyl]thio}acetic acid] came in with an IC50 of 0.062 µM. As to `C[C@@H](OC(=O)Nc1conc1-c1ccc(CCSCC(=O)O)cc1)c1ccccc1Cl` [Compound 27, {[2-(4-{4-[(1R)-1-(2-chlorophenyl)ethoxycarbonylamino]-3-isoxazolyl}phenyl)ethyl]thio}acetic acid], half-maximal inhibition (IC50) required 0.019 µM.

Take `C[C@@H](OC(=O)Nc1conc1-c1ccc(CSCCC(=O)O)cc1)c1ccccc1Br` [Compound 6, 3-(4-{4-[(1R)-1-(2-bromophenyl)ethoxycarbonylamino]-3-isoxazolyl}benzylsulfanyl)propionic acid]: the IC50 turned out to be 0.022 µM. The compound `CC(OC(=O)Nc1conc1-c1ccc(NC(=O)C[C@@H](O)C(=O)O)cc1)c1ccccc1Cl` (stereo partly drawn) [Compound 21, 4-[(4-{4-[1-(2-chlorophenyl)ethoxycarbonylamino]-3-isoxazolyl}phenyl)amino]-(2R)-2-hydroxy-4-oxobutanoic acid] came in with an IC50 of 0.084 µM.

`CC(OC(=O)Nc1cnoc1-c1ccc(CSCCC(=O)O)cc1)c1ccccc1Cl` (centres unmarked) [Compound 18, 3-(4-{4-[1-(2-chlorophenyl)ethoxycarbonylamino]-5-isoxazolyl}benzylsulfanyl)propionic acid] registered an IC50 of 0.081 µM. For `CC(=O)O[C@H](CC(=O)Nc1ccc(-c2nocc2NC(=O)OC(C)c2ccccc2Cl)cc1)C(=O)O` (stereo partly drawn) [Compound 26, (2R)-2-acetoxy-4-[(4-{4-[1-(2-chlorophenyl)ethoxy-carbonylamino]-3-isoxazolyl}phenyl)amino]-4-oxobutanoic acid], half-maximal inhibition (IC50) was put at 0.141 µM.

`C[C@@H](OC(=O)Nc1conc1-c1ccc(CCCCC(=O)O)cc1)c1ccccc1Cl` [Compound 31, 5-(4-{4-[(1R)-1-(2-chlorophenyl)ethoxycarbonylamino]-3-isoxazolyl}phenyl)-4-pentanoic acid]: the IC50 is 0.076 µM. `CC(OC(=O)Nc1conc1-c1ccc(CCCCC(=O)O)cc1)c1ccccc1Cl` (centres unmarked) [Compound 19, 5-(4-{4-[1-(2-chlorophenyl)ethoxycarbonylamino]-3-isoxazolyl}phenyl)-4-pentanoic acid] gave an IC50 of 0.047 µM. Compound `CC(OC(=O)Nc1conc1-c1ccc(CCSCC(=O)O)cc1)C1=C(Cl)CCC1` (centres unmarked) [Compound 16, {[2-(4-{4-[1-(2-chlorocyclopentenyl)ethoxycarbonylamino]-3-isoxazolyl}phenyl)ethyl]thio}acetic acid] registered an IC50 of 0.032 µM.

In the case of `C[C@@H](OC(=O)Nc1conc1-c1ccc(CS(=O)(=O)CCC(=O)O)cc1)c1ccccc1Br` [Compound 12, 3-(4-{4-[(1R)-1-(2-bromophenyl)ethoxycarbonylamino]-3-isoxazolyl}benzylsulfonyl)propionic acid], half-maximal inhibition (IC50) was put at 0.068 µM.

In turn, `C[C@@H](OC(=O)Nc1conc1-c1ccc(CS(=O)(=O)CCC(=O)O)cc1)c1ccccc1Cl` [Compound 28, 3-(4-{4-[(1R)-1-(2-chlorophenyl)ethoxycarbonylamino]-3-isoxazolyl}benzylsulfonyl)propionic acid] returned an IC50 of 0.036 µM. In the case of `CC(=O)N[C@@H](CSCc1ccc(-c2nocc2NC(=O)O[C@H](C)c2ccccc2Br)cc1)C(=O)O` [Compound 7, N-acetyl-S-(4-{4-[(1R)-1-(2-bromophenyl)-ethoxycarbonylamino]-3-isoxazolyl}benzyl)-L-cysteine] it was 0.059 µM; in that of `C[C@@H](OC(=O)Nc1conc1-c1ccc(CSCCC(=O)O)cc1)c1ccccc1Cl` [Compound 3, 3-(4-{4-[(1R)-1-(2-chlorophenyl)ethoxycarbonylamino]-3-isoxazolyl}benzylsulfanyl)propionic acid], 0.022 µM; in that of `CC(OC(=O)Nc1conc1-c1ccc(CS(=O)(=O)CCC(=O)O)cc1)C1=C(Cl)CCCC1` (centres unmarked) [Compound 13, 3-(4-{4-[1-(2-chloro-1-cyclohexenyl)ethoxycarbonylamino]-3-isoxazolyl}benzylsulfonyl)propionic acid], 0.104 µM. Turning to `CC(=O)Oc1ccc(-c2nocc2NC(=O)OC(C)c2ccccc2Cl)cc1` (centres unmarked) [Compound 22, 4-[4-({[1-(2-chlorophenyl)ethoxy]carbonyl}amino)-3-isoxazolyl]phenyl acetate], the IC50 came to 0.14 µM. For `CC(OC(=O)Nc1conc1-c1ccc(CSCCS(=O)(=O)O)cc1)c1ccccc1Cl` (centres unmarked) [Compound 5, 2-(4-{4-[1-(2-chlorophenyl)ethoxycarbonylamino]-3-isoxazolyl}benzylsulfanyl)ethanesulfonic acid], the IC50 was 0.074 µM. With `CC(OC(=O)Nc1conc1-c1ccc(CSCCC(=O)O)cc1)c1ccccc1Cl` (centres unmarked) [Compound 2, 3-(4-{4-[1-(2-chlorophenyl)ethoxycarbonylamino]-3-isoxazolyl}benzylsulfanyl)propionic acid], inhibition was half-maximal at 0.051 µM (IC50). `CC(OC(=O)Nc1conc1-c1ccc(CS(=O)(=O)CCC(=O)O)cc1)c1ccccc1Cl` (centres unmarked) [Compound 11, 3-(4-{4-[1-(2-chlorophenyl)ethoxycarbonylamino]-3-isoxazolyl}benzylsulfonyl)propionic acid] came in with an IC50 of 0.115 µM. Turning to `CC(OC(=O)Nc1conc1-c1ccc(COC(=O)NCCC(=O)O)cc1)c1ccccc1Cl` (centres unmarked) [Compound 20, 3-(4-{4-[1-(2-chlorophenyl)ethoxycarbonylamino]-3-isoxazolyl}benzyloxycarbonylamino)propionic acid], the IC50 is 0.083 µM. Turning to `CC(OC(=O)Nc1conc1-c1ccc(CCSCCC(=O)O)cc1)c1ccccc1Cl` (centres unmarked) [Compound 15, {3-[2-(4-{4-[1-(2-chlorophenyl)ethoxycarbonylamino]-3-isoxazolyl}phenyl)ethyl]thio}propionic acid], inhibition was half-maximal at 0.044 µM (IC50). For `CC(OC(=O)Nc1conc1-c1ccc(CCSCC(=O)O)cc1)c1ccccc1Cl` (centres unmarked) [Compound 14, {[2-(4-{4-[1-(2-chlorophenyl)ethoxycarbonylamino]-3-isoxazolyl}phenyl)ethyl]thio}acetic acid], the IC50 stood at 0.146 µM. As for `CC(OC(=O)Nc1conc1-c1ccc(CSCCC(=O)O)cc1)C1=C(Cl)CCCC1` (centres unmarked) [Compound 10, 3-(4-{4-[1-(2-chloro-1-cyclohexenyl)ethoxycarbonylamino]-3-isoxazolyl}benzylsulfanyl)propionic acid], the midpoint of inhibition, the IC50, lay at 0.056 µM. On to `CC(OC(=O)Nc1conc1-c1ccc(OCCCCC(=O)O)cc1)c1ccccc1Cl` (centres unmarked) [Compound 24, 5-(4-{4-[1-(2-chlorophenyl)ethoxycarbonylamino]-3-isoxazolyl}phenoxy)pentanoic acid], for which the midpoint of inhibition, the IC50, lay at 0.131 µM. Consider `C[C@@H](OC(=O)Nc1conc1-c1ccc(CCCCCC(=O)O)cc1)c1ccccc1Cl` [Compound 32, 6-(4-{4-[(1R)-1-(2-chlorophenyl)ethoxycarbonylamino]-3-isoxazolyl}phenyl)hexanoic acid], for which 0.114 µM corresponded to half-maximal inhibition (IC50). In the case of `CC(OC(=O)Nc1conc1-c1ccc(O)cc1)c1ccccc1Cl` (centres unmarked) [Compound 23, 1-(2-chlorophenyl)ethyl 3-(4-hydroxyphenyl)-4-isoxazolylcarbamate] it was 0.116 µM; in that of `C[C@@H](OC(=O)Nc1conc1-c1ccc(/C=C/CCC(=O)O)cc1)c1ccccc1Cl` [Compound 30, 5-(4-{4-[(1R)-1-(2-chlorophenyl)ethoxycarbonylamino]-3-isoxazolyl}phenyl)-4-pentenoic acid], 0.107 µM; in that of `C[C@@H](OC(=O)Nc1conc1-c1ccc(CCSCCC(=O)O)cc1)c1ccccc1Cl` [Compound 29, {3-[2-(4-{4-[(1R)-1-(2-chlorophenyl)ethoxycarbonylamino]-3-isoxazolyl}phenyl)ethyl]thio}propionic acid], 0.029 µM. For `CC(OC(=O)Nc1conc1-c1ccc(NC(=O)CCC(=O)O)cc1)c1ccccc1Cl` (centres unmarked) [Compound 25, 4-[(4-{4-[1-(2-chlorophenyl)ethoxycarbonylamino]-3-isoxazolyl}phenyl)amino]-4-oxobutanoic acid], the IC50 turned out to be 0.073 µM.

Compound `CC(OC(=O)Nc1conc1-c1ccc(CSCCC(=O)O)cc1)C1=C(Cl)CCC1` (centres unmarked) [Compound 8, 3-(4-{4-[1-(2-chloro-1-cyclopentenyl)ethoxycarbonylamino]-3-isoxazolyl}benzylsulfanyl)propionic acid] had an IC50 of 0.029 µM. In the case of `CC(CCCc1ccc(-c2nocc2NC(=O)O[C@H](C)c2ccccc2Cl)cc1)C(=O)O` (stereo partly drawn) [Compound 34, 5-(4-{4-[(1R)-1-(2-chlorophenyl)ethoxycarbonylamino]-3-isoxazolyl}phenyl)-2-methylpentanoic acid], the IC50 was determined as 0.102 µM.
